Measured values reported in ChEMBL document CHEMBL4043240, “Synthesis and evaluation of the NSCLC anti-cancer activity and physical properties of 4-aryl-N-phenylpyrimidin-2-amines” (Bioorg Med Chem Lett, 2017).
Converted amounts (≈) assume the structure as drawn.

What was measured:
[1] = Selectivity index, ratio of IC50 for African green monkey Vero cells to IC50 for human A549 cells; assay type: functional
A549 = test: Cytotoxicity against human A549 cells after 72 hrs by MTT assay; assay type: functional, cell-based; conditions: A549, 72 h
Vero = test: Cytotoxicity against African green monkey Vero cells after 72 hrs by MTT assay; assay type: ADME, cell-based; conditions: Chlorocebus sabaeus
MCF7 [2] = test: cells; conditions: Homo sapiens, MCF7, 72 h
Description: Cytotoxicity against human MCF7 cells after 72 hrs by resazurin based fluorescence assay

[3] = Solubility of the compound in PBS at pH 7.4 by HPLC-UV analysis; assay type: physicochemical
KB [4] = test: Cytotoxicity against human KB cells at 10 uM after 72 hrs by resazurin based fluorescence assay relative to control; assay type: functional
[5] = 1-octanol/water partition co-efficient, log D of the compound in PBS at pH 7.4 after 6 hrs by HPLC-UV based shake-flask method; assay type: physicochemical; conditions: 1-octanol/PBS
MCF7 [6] = test: Cytotoxicity against human MCF7 cells at 10 uM after 72 hrs by resazurin based fluorescence assay; assay type: functional
NCI-H187 [7] = test: Cytotoxicity against human NCI-H187 cells at 10 uM after 72 hrs by resazurin based fluorescence assay; assay type: functional
NCI-H187 [8] = test: Cytotoxicity against human NCI-H187 cells after 72 hrs by resazurin based fluorescence assay; assay type: functional, cell-based; conditions: NCI-H187, 72 h
KB [9] = test: Cytotoxicity against human KB cells after 72 hrs by resazurin based fluorescence assay; assay type: functional, cell-based
[10] = biological target: Cyclin-dependent kinase 5 (Homo sapiens, UniProt Q00535); test: Inhibition of human CDK5
Chain of Cyclin-dependent kinase 5 (Q00535 whole entry): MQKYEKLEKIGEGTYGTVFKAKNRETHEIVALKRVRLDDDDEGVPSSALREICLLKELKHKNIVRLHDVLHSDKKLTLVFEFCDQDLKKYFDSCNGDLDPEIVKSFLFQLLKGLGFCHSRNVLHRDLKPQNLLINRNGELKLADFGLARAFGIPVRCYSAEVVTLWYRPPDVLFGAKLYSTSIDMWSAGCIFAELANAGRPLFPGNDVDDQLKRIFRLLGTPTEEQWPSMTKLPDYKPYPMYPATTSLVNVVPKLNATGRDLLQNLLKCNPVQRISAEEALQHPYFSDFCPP

NCI-H187 [11] = test: Cytotoxicity against human NCI-H187 cells at 10 ug/ml after 72 hrs by resazurin based fluorescence assay; assay type: functional
KB [12] = test: Cytotoxicity against human KB cells at 10 ug/ml after 72 hrs by resazurin based fluorescence assay relative to control; assay type: functional

Row | Structure (SMILES) | Ratio IC50 [1] | IC50 (A549) [µM] | IC50 (Vero) [µM] | IC50 (MCF7 [2]) [µM] | solubility [3] [µM] | Activity (KB [4]) [%] | logD at 6 h [5] | Activity (MCF7 [6]) [%] | Activity (NCI-H187 [7]) [%] | IC50 (NCI-H187 [8]) [µM] | IC50 (KB [9]) [µM] | IC50 [10] [µM] | Activity (NCI-H187 [11]) [%] | Activity (KB [12]) [%]
1 | COc1ccc(-c2ccnc(Nc3ccc(S(N)(=O)=O)cc3)n2)cc1 | 0 | 4.4 | 2.4 | – | – | – | – | – | – | – | – | – | – | –
2 | COc1ccc(-c2ccnc(Nc3cccc(S(N)(=O)=O)c3)n2)cc1 | 0 | 1.6 | 1.1 | 5.95 | 38.4 (≈ 13.7 µg/mL) | 76.3 | 2.7 | 63.3 | 82.3 | 2.08 | 1.29 | – | – | –
3 | COc1ccc(-c2ccnc(Nc3cccc(NS(C)(=O)=O)c3)n2)cc1 | 4.5 | 0.2 | 0.9 | – | < 0.5 | 43.7 | 3.2 | 41 | 84.8 | 5.35 | – | – | – | –
4 | Cc1csc(-c2ccnc(Nc3ccc(C(N)=O)cc3)n2)c1 | 0 | 30 | 6.2 | – | – | – | – | – | – | – | – | – | – | –
5 | CS(=O)(=O)c1ccc(-c2ccnc(Nc3cccc(C(N)=O)c3)n2)cc1 | 0 | > 100 | 37.9 | – | – | – | – | – | – | – | – | – | – | –
6 | COc1ccc(-c2ccnc(Nc3ccc4nc[nH]c4c3)n2)cc1 | 1.1 | 13.9 | 14.8 | – | – | – | – | – | – | – | – | – | – | –
7 | CC(=O)Nc1ccc(-c2ccnc(Nc3cccc(C(N)=O)c3)n2)cc1 | >3 | 33 | > 100 | – | – | – | – | – | – | – | – | – | – | –
8 | COc1ccc(-c2ccnc(Nc3ccc(C(=O)O)cc3)n2)cc1 | >4.9 | 20.3 | > 100 | – | 12.1 (≈ 3.89 µg/mL) | 0 | 1.2 | 0 | 23.5 | – | – | – | – | –
9 | CC(=O)Nc1ccc(-c2ccnc(Nc3cccc(S(N)(=O)=O)c3)n2)cc1 | 1.3 | 6.6 | 8.7 | – | – | – | – | – | – | – | – | – | – | –
10 | COc1ccc(-c2ccnc(Nc3cccc(C(N)=O)c3)n2)cc1 | 0 | 6.7 | 2.7 | – | 4.1 (≈ 1.31 µg/mL) | 0 | 3.1 | 0 | 18.6 | – | – | – | – | –
11 | Cc1csc(-c2ccnc(Nc3cc([N+](=O)[O-])ccc3O)n2)c1 | 0 | > 100 | > 100 | – | – | – | – | – | – | – | – | – | – | –
12 | COC(=O)c1ccc(Nc2nccc(-c3ccc(OC)cc3)n2)cc1 | 0 | 6 | 4.5 | – | 6.9 (≈ 2.31 µg/mL) | 0 | 2.9 | 0 | 23.8 | – | – | – | – | –
13 | Cc1csc(-c2ccnc(Nc3ccc(C(=O)O)cc3)n2)c1 | 4.4 | 18.2 | 80.8 | – | – | – | – | – | – | – | – | – | – | –
14 | COc1cccc(-c2ccnc(Nc3cccc(S(N)(=O)=O)c3)n2)c1 | 0 | 2.6 | 1.1 | 1.5 | < 0.6 | 94.9 | 3 | 63.8 | 96.6 | 1.34 | 3.56 | – | – | –
15 | COc1ccc(-c2ccnc(Nc3cccc(N)c3)n2)cc1 | – | – | – | – | – | – | – | – | – | – | – | 81 | – | –
16 | NS(=O)(=O)c1cccc(Nc2nccc(-c3ccccc3)n2)c1 | 4 | 0.2 | 0.8 | – | 3.4 (≈ 1.11 µg/mL) | 93.6 | 2.9 | 0 | 99.8 | 1.18 | 2.44 | – | – | –
17 | CS(=O)(=O)c1ccc(-c2ccnc(Nc3cccc(S(N)(=O)=O)c3)n2)cc1 | 0 | > 100 | > 100 | – | – | – | – | – | – | – | – | – | – | –
18 | COc1ccc(-c2ccnc(Nc3ccc(C(N)=O)cc3)n2)cc1 | 0 | 5.3 | 5.4 | – | < 0.6 | 0 | 2.8 | 1.9 | 28.1 | – | – | – | – | –
19 | Cc1csc(-c2ccnc(Nc3cccc(C(N)=O)c3)n2)c1 | 0 | > 100 | > 100 | – | – | – | – | – | – | – | – | – | – | –
20 | COc1ccc(-c2ccnc(Nc3ccc4cn[nH]c4c3)n2)cc1 | 0 | 65.1 | 7.9 | – | – | – | – | – | – | – | – | – | – | –
21 | COc1cccc2c1C(=O)c1c(O)c3c(c(O)c1C2=O)C[C@@](O)(C(=O)CO)C[C@@H]3O[C@H]1C[C@H](N)[C@H](O)[C@H](C)O1 [DOXORUBICIN] | – | 0.4 | 1.4 | – | – | – | – | – | – | 0.06 | 1.35 | – | 96.98 | 99.7
22 | Cc1c2ccncc2c(C)c2c1[nH]c1ccccc12 [ELLIPTECINE] | – | – | – | – | – | – | – | – | – | 0.95 | 2.81 | – | 99.24 | 96.3
23 | CC/C(=C(\c1ccccc1)c1ccc(OCCN(C)C)cc1)c1ccccc1 [TAMOXIFEN] | – | – | – | 7.94 | – | – | – | – | – | – | – | – | – | –
